“Also recorded” adds a separate entry of the source.
Legend:
HEK-293 cells = assay: 3H-labeled amino acid uptake selectivity panel; format: cell-based, human; conditions: 3H-leucine, HEK293
Method: Live-cell amino acid uptake assays using HEK293 cells were carried out in 96-well plates (CulturPlate-96, Perkin Elmer). 96-well plates were coated with poly-D-lysine prior to the assay. Cells were plated at a density of 35,000 cells per well 24 h prior to carrying out the assay. Each set of conditions was replicated at least three times, technically and biologically. […] For ASCT2-mediated ^3H-glutamine uptake assays, 5 mM of the system-L inhibitor 2-amino-2-norbornanecarboxylic acid (BCH) was added and the assay buffer was adjusted to pH 6.0. For selectivity studies, no BCH was added and the assay was conducted at pH 7.4. Following the incubation period, the ^3H-glutamine/inhibitor was removed and the cells were washed three times with assay buffer. The cells were then lysed by the addition of 50 μL of 1 M NaOH. For reading, 150 μL of scintillation fluid (Microscint 40, Perkin Elmer) was added and the plates were counted on a scintillation counter (Topcount, Perkin Elmer). Fifty percent inhibitory concentrations (IC50) were calculated using GraphPad Prism version 6 for Mac OS X, GraphPad Software, San Diego Calif. USA, www.graphpad.com. Error is reported as standard deviation (SD).

[1] = system: activated CD8-positive T-cells; assay: Viability and activation of CD8-positive T-cells; format: cell-based, mouse; conditions: 96 hrs
Method: CD8+ cells were isolated from the spleens of 8-12 week old C57BL6 mice on standard chow from Jackson Labs maintained under IACUC approved protocols. CD8+ cells were stained using the proliferative dye Cell Trace Violet (LifeTech) before stimulation as per manufacturer's protocol. Cells were stimulated on 5 ug/mL anti-CD3/CD28-coated plates in media containing IL-2 (‘activated’, 10 ng/mL), or in tissue-culture treated plates in media containing IL-7 (‘naive’, 1 ng/mL) for up to 7 days. Cells were removed at each day described for viability, cell counts, proliferation, and surface markers of activation. Cell surface markers used were CD62L-FITC and APC, CD44-PECy5 and CD25-PE. All data were acquired in triplicate on a MacsQuant Analyzer (Miltenyi Biotec) and analyzed using FlowJo V10 (TreeStar software).

HCC1806 cells = assay: Fluorescence redox ratio imaging; format: cell-based, human; conditions: 10 μM, 48 h
Method: HCC1806 cells were plated on 35-mm glass-bottom petri dishes for imaging (MatTek Corp). Fluorescence intensity and lifetime images were acquired using a custom-built multiphoton fluorescence lifetime system (Bruker), with a 40× oil-immersion objective (1.3 NA) and an inverted microscope (TiE, Nikon). A titanium:sapphire laser (Chameleon Ultra II, Coherent) was tuned to 750 nm for two-photon excitation of NAD(P)H and tuned to 890 nm for two-photon excitation of FAD. A 440/80 nm bandpass filter was used to collect NAD(P)H fluorescence emission, and a 550/100 nm was used to collect FAD emission. […] A GaAsP PMT (H7422P-40, Hamamatsu) detected emitted photons. […] Time-correlated single photon counting electronics (SPC-150, Becker and Hickl) were used to acquire fluorescence decay curves. […] Fluorescence lifetime validation was performed by imaging a fluorescent bead (Polysciences Inc) and confirming that the measured lifetime (2.1 ns) agreed with previously published values^22. […]
An automated cell segmentation routine was written using CellProfiler to identify individual cell cytoplasms and extract average fluorescence intensity and fluorescence lifetime values for each cell in the field of view. Intensity values for each pixel were calculated by integrating the decay curve for each pixel. […]

[2] = V-9302 concentration in whole blood with time; format: in vivo, mouse; conditions: single dose 75 mg/kg, healthy mice
Method: Liquid chromatography-tandem mass spectroscopy (LC-MS/MS) analyses were performed via reverse phase chromatography using a Shimadzu Nexera X2 UPLC (Columbia, Md.) coupled with a QTrap® 5500 (Sciex, Framinghman, MA, USA). […] Blank samples were made using fresh whole blood applied to Mitra® Microsamplers and allowed to dry for at least 24 h. All data were collected using Sciex Analyst 1.6.2 software and analyzed with MultiQuant 3.0 software. Error is reported as standard deviation (SD).

Colo-205 xenografts = assay: Colo-205 xenograft 10-day exposure study; format: in vivo, mouse; conditions: 75 mg/kg per day, 10 days
[3] = Tolerability in chronic exposure studies (body mass, liver pathology); format: in vivo, mouse; conditions: 75 mg/kg per day, 21 days, vs vehicle

With `Cc1cccc(COc2ccccc2CN(CCC(N)C(=O)O)Cc2ccccc2OCc2cccc(C)c2)c1` (centres unmarked) [Compound V-9302] the “inhibition of leucine uptake” value (HEK-293 cells) was “capable of inhibiting the uptake of another ASCT2 substrate, leucine”, the T-cell activation ([1]; CD44 expression) was “not impaired” and the T-cell viability ([1]; in vitro, relative to vehicle) was “unchanged relative to vehicle”. The “fluorescent lifetimes of NAD(P)H and FAD” value (HCC1806 cells) was “decreased the fluorescent lifetimes of both NAD(P)H and FAD”, the half-life ([2]; mouse, whole blood) was roughly 6 h and the “time to steady-state whole blood concentration” value [2] was 4 h. The “tumor BRDU uptake” value (Colo-205 xenografts) was “decreased tumor BRDU uptake”, the tumor growth (Colo-205 xenografts) was “tumor growth arrest” and the tumor response markers (Colo-205 xenografts) was “elevated LC3B, cleaved caspase 3 and decreased pAKT (Ser473 and Thr308), as well as increased cleaved PARP and decreased and pERK”. For the same compound, the liver pathology ([3]; athymic nude mice, H&E) was “similar; also recorded: no discernible difference” and the weight loss ([3]; chronic exposure) was “no significant weight loss”.
